# Laboratory results reported in patent US20260048047A1, “SMALL-MOLECULE ACTIVATORS OF MYCOBACTERIUM TUBERCULOSIS ADENYLYL CYCLASE” (priority 2022, published 2026).
# System: M. tuberculosis
# Assay: Extracellular activity against M. tuberculosis in cholesterol media (Alamar Blue reduction assay)
# Assay type: cell-based, Mycobacterium tuberculosis
# Settings: Mycobacterium tuberculosis, 240 h, 7H12-Cholesterol media, 10 days; read-out: Cholesterol broth: alamar blue--EC50
row,Compound,EC50 [µM]
1,"Cc1nonc1CC(=O)N1CCC(c2nc(-c3ccc(OC(F)F)cc3)no2)CC1 [Compound 108, 1-(4-(3-(4-(difluoromethoxy)phenyl)-1,2,4-oxadiazol-5-yl)piperidin-1-yl)-2-(4-methyl-1,2,5-oxadiazol-3-yl)ethan-1-one]",0.716
2,"Cc1nonc1CC(=O)N1CCC(c2nc(C3CCC(F)(F)C3)no2)CC1 (stereo not shown) [Compound 109, 1-(4-(3-(3,3-difluorocyclopentyl)-1,2,4-oxadiazol-5-yl)piperidin-1-yl)-2-(4-methyl-1,2,5-oxadiazol-3-yl)ethan-1-one]",3.25
3,"Cc1nonc1CC(=O)N1CCC(c2nc(C3CCC(F)(F)CC3)no2)CC1 [Compound 110, 1-(4-(3-(4,4-difluorocyclohexyl)-1,2,4-oxadiazol-5-yl)piperidin-1-yl)-2-(4-methyl-1,2,5-oxadiazol-3-yl)ethan-1-one]",0.969
4,"Cc1nonc1CC(=O)N1CCC(O)(c2nc(C3CCC(F)(F)CC3)no2)CC1 [Compound 111, 1-(4-(3-(4,4-difluorocyclohexyl)-1,2,4-oxadiazol-5-yl)-4-hydroxypiperidin-1-yl)-2-(4-methyl-1,2,5-oxadiazol-3-yl)ethan-1-one]",> 10
5,"Cc1nonc1CC(=O)N1CCC(c2nc(C3CCCC(F)(F)C3)no2)CC1 (stereo not shown) [Compound 112, 1-(4-(3-(3,3-difluorocyclohexyl)-1,2,4-oxadiazol-5-yl)piperidin-1-yl)-2-(4-methyl-1,2,5-oxadiazol-3-yl)ethan-1-one]",2.67
6,"Cc1nonc1CC(=O)N1CCC(c2nc([C@@H]3CC[C@H](F)C3)no2)CC1 [Compound 113, 1-(4-(3-((1R,3S)-3-fluorocyclopentyl)-1,2,4-oxadiazol-5-yl)piperidin-1-yl)-2-(4-methyl-1,2,5-oxadiazol-3-yl)ethan-1-one]",> 25
7,"Cc1nonc1CC(=O)N1CCC(c2nc([C@@H]3CC[C@@H](F)C3)no2)CC1 [Compound 114, 1-(4-(3-((1R,3R)-3-fluorocyclopentyl)-1,2,4-oxadiazol-5-yl)piperidin-1-yl)-2-(4-methyl-1,2,5-oxadiazol-3-yl)ethan-1-one]",7.04
8,"Cc1nonc1CC(=O)N1CCC(c2nc(C3CCC(F)CC3)no2)CC1 (stereo not shown) [Compound 115, 1-(4-(3-(4-fluorocyclohexyl)-1,2,4-oxadiazol-5-yl)piperidin-1-yl)-2-(4-methyl-1,2,5-oxadiazol-3-yl)ethan-1-one]",> 25
9,"Cc1nonc1CC(=O)N1CCC(c2noc(C34CC(F)(C3)C4)n2)CC1 [Compound 116, 1-(4-(5-(3-fluorobicyclo[1.1.1]pentan-1-yl)-1,2,4-oxadiazol-3-yl)piperidin-1-yl)-2-(4-methyl-1,2,5-oxadiazol-3-yl)ethan-1-one]",9.23
10,Cc1nonc1CC(=O)N1CCC(c2nc(-c3ccc(C(F)(F)F)c(F)c3)no2)CC1 [Compound 117],0.278
11,"Cc1nonc1CC(=O)N1CCC(c2nc(-c3ccc(Cl)c(F)c3)no2)CC1 [Compound 118, 1-(4-(3-(4-chloro-3-fluorophenyl)-1,2,4-oxadiazol-5-yl)piperidin-1-yl)-2-(4-methyl-1,2,5-oxadiazol-3-yl)ethan-1-one]",0.0805
12,"Cc1nonc1CC(=O)N1CCC(c2nc(-c3cc(F)cc(Cl)c3)no2)CC1 [Compound 119, 1-(4-(3-(3-chloro-5-fluorophenyl)-1,2,4-oxadiazol-5-yl)piperidin-1-yl)-2-(4-methyl-1,2,5-oxadiazol-3-yl)ethan-1-one]",0.47
13,"Cc1nonc1CC(=O)N1CCC(c2nc(-c3ccc(Cl)cc3F)no2)CC1 [Compound 120, 1-(4-(3-(4-chloro-2-fluorophenyl)-1,2,4-oxadiazol-5-yl)piperidin-1-yl)-2-(4-methyl-1,2,5-oxadiazol-3-yl)ethan-1-one]",0.37
14,"Cc1nonc1CC(=O)N1CCC(c2nc(-c3ccc(F)cc3Cl)no2)CC1 [Compound 121, 1-(4-(3-(2-chloro-4-fluorophenyl)-1,2,4-oxadiazol-5-yl)piperidin-1-yl)-2-(4-methyl-1,2,5-oxadiazol-3-yl)ethan-1-one]",0.38
15,"Cc1nonc1CC(=O)N1CCC(c2nc(-c3ccc(F)cc3F)no2)CC1 [Compound 122, 1-(4-(3-(2,4-difluorophenyl)-1,2,4-oxadiazol-5-yl)piperidin-1-yl)-2-(4-methyl-1,2,5-oxadiazol-3-yl)ethan-1-one]",0.39
16,Cc1nonc1CC(=O)N1CCC(c2nc(-c3ccc(F)cc3C(F)(F)F)no2)CC1 [Compound 123],1.48
17,Cc1nonc1CC(=O)N1CCC(c2nc(-c3ccc(F)c(C(F)(F)F)c3)no2)CC1 [Compound 124],0.334
18,Cc1nonc1CC(=O)N1CCC(c2nc(-c3ccc(F)c(OC(F)(F)F)c3)no2)CC1 [Compound 125],0.288
19,"Cc1nonc1CC(=O)N1CCC(n2ccc(-c3ccc(F)cc3)n2)CC1 [Compound 127, 1-(4-(3-(4-fluorophenyl)-1H-pyrazol-1-yl)piperidin-1-yl)-2-(4-methyl-1,2,5-oxadiazol-3-yl)ethan-1-one]",2.97

row,Compound,EC50 [µM]
1,"Cc1nonc1CC(=O)N1CCC(n2cc(-c3ccc(F)cc3)nn2)CC1 [Compound 128, 1-(4-(4-(4-fluorophenyl)-1H-1,2,3-triazol-1-yl)piperidin-1-yl)-2-(4-methyl-1,2,5-oxadiazol-3-yl)ethan-1-one]",> 10
2,"Cc1nonc1CC(=O)N1CCC(c2nnc(-c3ccc(F)cc3)o2)CC1 [Compound 129, 1-(4-(5-(4-fluorophenyl)-1,3,4-oxadiazol-2-yl)piperidin-1-yl)-2-(4-methyl-1,2,5-oxadiazol-3-yl)ethan-1-one]",> 10
3,"Cc1nonc1CC(=O)N1CCC(c2nc(-c3ccc(F)cc3)no2)CC1 [Compound 130, 1-(4-(3-(4-fluorophenyl)-1,2,4-oxadiazol-5-yl)piperidin-1-yl)-2-(4-methyl-1,2,5-oxadiazol-3-yl)ethan-1-one]",0.275
4,"Cc1nonc1CC(=O)N1CCC(c2noc(-c3ccc(F)cc3)n2)CC1 [Compound 132, 1-(4-(5-(4-fluorophenyl)-1,2,4-oxadiazol-3-yl)piperidin-1-yl)-2-(4-methyl-1,2,5-oxadiazol-3-yl)ethan-1-one]",1.07
5,"Cc1nonc1CC(=O)N1CCC(c2nc(-c3ccc(F)cc3)co2)CC1 [Compound 134, 1-(4-(4-(4-fluorophenyl)oxazol-2-yl)piperidin-1-yl)-2-(4-methyl-1,2,5-oxadiazol-3-yl)ethan-1-one]",1.43
6,"Cc1nonc1CC(=O)N1CCC(c2cc(-c3ccc(F)cc3)no2)CC1 [Compound 135, 1-(4-(3-(4-fluorophenyl)isoxazol-5-yl)piperidin-1-yl)-2-(4-methyl-1,2,5-oxadiazol-3-yl)ethan-1-one]",1.58
7,"Cc1nonc1CC(=O)N1CCC(C)(c2nc(-c3ccc(F)cc3)no2)CC1 [Compound 138, 1-(4-(3-(4-fluorophenyl)-1,2,4-oxadiazol-5-yl)-4-methylpiperidin-1-yl)-2-(4-methyl-1,2,5-oxadiazol-3-yl)ethan-1-one]",1.47
8,"Cc1nonc1CC(=O)N1CCC(c2nc(-c3ccc(F)cc3)no2)(C(F)(F)F)CC1 [Compound 139, 1-(4-(3-(4-fluorophenyl)-1,2,4-oxadiazol-5-yl)-4-(trifluoromethyl)piperidin-1-yl)-2-(4-methyl-1,2,5-oxadiazol-3-yl)ethan-1-one]",> 10
9,"Cc1nonc1CC(=O)N1CCC(O)(c2nc(-c3ccc(F)cc3)no2)CC1 [Compound 140, 1-(4-(3-(4-fluorophenyl)-1,2,4-oxadiazol-5-yl)-4-hydroxypiperidin-1-yl)-2-(4-methyl-1,2,5-oxadiazol-3-yl)ethan-1-one]",0.685
10,"Cc1nonc1CC(=O)N1CCC(c2nc(-c3ccc(F)cn3)no2)CC1 [Compound 141, 1-(4-(3-(5-fluoropyridin-2-yl)-1,2,4-oxadiazol-5-yl)piperidin-1-yl)-2-(4-methyl-1,2,5-oxadiazol-3-yl)ethan-1-one]",> 10
11,"Cc1nonc1CC(=O)N1CCC(c2nc(Cc3ccc(F)cc3)no2)CC1 [Compound 142, 1-(4-(3-(4-fluorobenzyl)-1,2,4-oxadiazol-5-yl)piperidin-1-yl)-2-(4-methyl-1,2,5-oxadiazol-3-yl)ethan-1-one]",6.64
12,"Cc1nonc1CC(=O)N1CCC(c2nc(-c3cccc(F)c3F)no2)CC1 [Compound 143, 1-(4-(3-(2,3-difluorophenyl)-1,2,4-oxadiazol-5-yl)piperidin-1-yl)-2-(4-methyl-1,2,5-oxadiazol-3-yl)ethan-1-one]",1.2
13,"Cc1nonc1CC(=O)N1CCC(c2nc(-c3cccc(F)c3)no2)CC1 [Compound 144, 1-(4-(3-(3-fluorophenyl)-1,2,4-oxadiazol-5-yl)piperidin-1-yl)-2-(4-methyl-1,2,5-oxadiazol-3-yl)ethan-1-one]",0.59
14,"Cc1nonc1CC(=O)N1CCC(n2nnc(-c3cccc(F)c3)n2)CC1 [Compound 145, 1-(4-(5-(3-fluorophenyl)-2H-tetrazol-2-yl)piperidin-1-yl)-2-(4-methyl-1,2,5-oxadiazol-3-yl)ethan-1-one]",0.963
15,"Cc1nonc1CC(=O)N1CCC(c2nc(-c3ccccc3F)no2)CC1 [Compound 146, 1-(4-(3-(2-fluorophenyl)-1,2,4-oxadiazol-5-yl)piperidin-1-yl)-2-(4-methyl-1,2,5-oxadiazol-3-yl)ethan-1-one]",1.36
16,"Cc1nonc1CC(=O)N1CCC(n2nnc(-c3ccccc3F)n2)CC1 [Compound 147, 1-(4-(5-(2-fluorophenyl)-2H-tetrazol-2-yl)piperidin-1-yl)-2-(4-methyl-1,2,5-oxadiazol-3-yl)ethan-1-one]",1.45
17,"Cc1nonc1CC(=O)N1CCC(c2nc(-c3ncc(F)cn3)no2)CC1 [Compound 148, 1-(4-(3-(5-fluoropyrimidin-2-yl)-1,2,4-oxadiazol-5-yl)piperidin-1-yl)-2-(4-methyl-1,2,5-oxadiazol-3-yl)ethan-1-one]",> 10
18,"Cc1nonc1CC(=O)N1CCC(n2nnc(-c3ccc(C(N)=O)cc3)n2)CC1 [Compound 149, 4-(2-(1-(2-(4-methyl-1,2,5-oxadiazol-3-yl)acetyl)piperidin-4-yl)-2H-tetrazol-5-yl)benzamide]",> 10
